Experimental findings from patent publication US20050209220A1, “Treatment of peripheral neuropathy” (priority 2004, published 2005) are described below.

Molecules are shown by their SMILES. Where a name gives a salt, the structure may show the parent alone.

This assay deals with diabetic patient with neuropathy of the lower extremities. In words: Case reports: diabetic patients with neuropathy / pain of the lower extremities. The format is in vivo, human. Here is the method:
2. A diabetic patient with severe pains in their legs reported that it was very difficult for them to sleep with the pain. At first, they were instructed to take the one-half the regimen described in Example 1, that is 10 mgs of desipramine and 1 mg of fluphenazine at bedtime. […] 3. A diabetic patient with neuropathy of the lower extremities was prescribed 10 mgs of desipramine alone orally every twelve hours. […] 4. A diabetic patient with severe pain in the lower legs and feet was instructed to take 1 mg of fluphenazine hydrochloride orally every twelve hours beginning at bedtime. […] 5. A diabetic patient with severe lower extremity neuropathy manifested as pain in the lower legs and feet was instructed to take 2 mgs of fluphenazine hydrochloride orally every twelve hours beginning at bedtime.

`CNCCCN1c2ccccc2CCc2ccccc21` [desipramine]: the patient-reported pain reduction entry by setting is: (diabetic patient (Example 3), desipramine alone, 10 mgs orally every twelve hours (20 mgs/day)) “lack of effectiveness in reducing pain”; (diabetic patient (Example 3), desipramine alone, higher dosage of 40 mgs per day) “lack of effectiveness in reducing pain”.

With `OCCN1CCN(CCCN2c3ccccc3Sc3ccc(C(F)(F)F)cc32)CC1` [fluphenazine hydrochloride], the patient-reported pain reduction result runs as follows: (diabetic patient (Example 4), fluphenazine hydrochloride alone, 1 mg orally every twelve hours, after two weeks) “somewhat of an improvement in pain reduction, but not complete elimination”; (diabetic patient (Example 5), fluphenazine hydrochloride alone, 2 mgs orally every twelve hours, after two weeks) “somewhat of an improvement in pain reduction, but not complete elimination”; (diabetic patient (Example 5), fluphenazine hydrochloride alone, 4 mgs every twelve hours) “substantial improvement in reducing the severity of pain”.
